Measurements from patent US20240043427A1 (Gilead Sciences, Inc., priority 2020, published 2024).
pEC50, pIC50: −log10 of the molar value. Where two headings read alike, the source gives them in different places.

Experiments:
CD73 [1] = target: T1, CD73 (Homo sapiens (Human), UniProt P21589); test: CD73 Biochemical IC50 Assay; conditions: CD73 0.3 nM, AMP 15 uM, 25 mM Tris pH 7.4, 5 mM MgCl2
Protocol: CD73 Biochemical IC50 Assay
Compound serial dilutions were pre-spotted into Thermo Nunc assay plate. 50 μL CD73 enzyme buffer (CD73 purchased from R&D system=0.6 nM, 25 mM Tris, pH 7.4, 5 mM MgCl2) was added into the assay plate and incubated for 15 mins. […] The samples were run using Rapid fire.

CD73 [2] = target: T1, CD73; format: biochemical; conditions: 1 mM NaH2PO4 in enzyme buffer, CD73 0.3 nM, AMP 15 uM
Protocol: Compound serial dilutions were pre-spotted into Thermo Nunc assay plate. 50 uL CD73 enzyme buffer (CD73 purchased from R&D system=0.6 nM, 25 mM Tris, pH 7.4, 5 mM MgCl2, 1 mM NaH2PO4) was added into the assay plate and incubate for 15 mins. […] After incubation for 60 mins, the supernatant (20 uL) was transferred into 384-well NUNC plate pre-filled with 60 uL Quench buffer (80% organic and 20% water+0.1% FA) with internal standard. The plate was spun down at 4500 rpm for 20 mins, then 20 uL of supernatant was transferred to another Nunc plate prefilled with 80 uL of water. The samples were analyzed using Rapid fire.

CD73 [3] = target: T1, CD73; test: MDA-MB-231 Cell Based CD73 Activity Assay (DMEM); conditions: MDA-MB-231-GFP cells, DMEM medium with 10% human plasma, 200 uM AMP
CD73 [4] = target: T1, CD73; test: MDA-MB-231 Cell Based CD73 Activity Assay; conditions: MDA-MB-231-GFP cells, RPMI medium with 10% human plasma, 200 uM AMP

T1 sequence (P21589 27-574): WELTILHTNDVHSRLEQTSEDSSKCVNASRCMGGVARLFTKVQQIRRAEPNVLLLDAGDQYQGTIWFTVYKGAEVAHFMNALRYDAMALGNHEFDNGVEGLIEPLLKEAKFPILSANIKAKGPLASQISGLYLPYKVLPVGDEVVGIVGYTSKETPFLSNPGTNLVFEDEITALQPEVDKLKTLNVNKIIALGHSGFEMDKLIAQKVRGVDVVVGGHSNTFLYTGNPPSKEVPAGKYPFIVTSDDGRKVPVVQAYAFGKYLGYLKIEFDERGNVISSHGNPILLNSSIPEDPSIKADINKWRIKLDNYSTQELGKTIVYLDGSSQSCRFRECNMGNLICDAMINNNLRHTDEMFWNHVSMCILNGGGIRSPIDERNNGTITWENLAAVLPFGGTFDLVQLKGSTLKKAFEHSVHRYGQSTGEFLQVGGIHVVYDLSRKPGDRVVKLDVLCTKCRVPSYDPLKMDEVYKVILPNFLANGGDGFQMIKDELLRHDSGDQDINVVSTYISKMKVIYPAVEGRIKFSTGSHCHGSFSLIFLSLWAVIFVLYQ

pIC50 (CD73 [1])	pIC50 (CD73 [2])	pEC50 (CD73 [3])	pEC50 (CD73 [4])	SMILES
6.66	6.87	6.54	6.62	O=c1[nH]cc(-c2cc(N3CCC(F)(F)CC3)c3nccn3n2)c(=O)[nH]1 [Example 70, 5-[8-(4,4-difluoro-1-piperidyl)imidazo[1,2-b]pyridazin-6-yl]-1H-pyrimidine-2,4-dione]
7.58	8.16	7.59	7.91	CC1(C)CCN(c2cc(-c3c[nH]c(=O)[nH]c3=O)nn3ccnc23)C1 [Example 72, 5-[8-(3,3-dimethylpyrrolidin-1-yl)imidazo[1,2-b]pyridazin-6-yl]-1H-pyrimidine-2,4-dione]
7.60	8.34	7.68	7.93	O=c1[nH]cc(-c2cc(N3CCC(F)(F)C3)c3nccn3n2)c(=O)[nH]1 [Example 79, 5-[8-(3,3-difluoropyrrolidin-1-yl)imidazo[1,2-b]pyridazin-6-yl]-1H-pyrimidine-2,4-dione]
6.28	< 6.60	6.16	6.25	O=c1[nH]cc(-c2cc(N3CCCC(F)(F)C3)c3nccn3n2)c(=O)[nH]1 [Example 93, 5-(8-(3,3-difluoropiperidin-1-yl)imidazo[1,2-b]pyridazin-6-yl)pyrimidine-2,4(1H,3H)-dione]
